Measurements: PMC7572726 (Nature, 2020)

Columns and labels:
Experiment in all cases: EMSA
Type in all cases: binding
Conditions in all cases: labelled compound (32P, ~1 uM), 20 uM protein; pH 7.5, 25 C
[1] = target: T1, FdSTING (Flavobacterium daejeonense, UniProt P0DUD9)
T1 sequence (P0DUD9 1-311): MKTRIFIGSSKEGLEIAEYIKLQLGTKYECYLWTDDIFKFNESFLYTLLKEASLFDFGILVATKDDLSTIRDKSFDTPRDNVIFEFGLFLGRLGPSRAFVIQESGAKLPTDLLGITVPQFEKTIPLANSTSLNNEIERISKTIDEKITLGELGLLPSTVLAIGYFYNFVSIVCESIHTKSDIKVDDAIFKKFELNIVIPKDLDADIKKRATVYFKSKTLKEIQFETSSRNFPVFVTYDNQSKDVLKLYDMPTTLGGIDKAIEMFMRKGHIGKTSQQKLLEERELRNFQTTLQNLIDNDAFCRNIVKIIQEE

[2] = target: T2, LbSTING (Lachnospiraceae bacterium RUG226, UniProt P0DUE0)
T2 sequence (P0DUE0 1-316): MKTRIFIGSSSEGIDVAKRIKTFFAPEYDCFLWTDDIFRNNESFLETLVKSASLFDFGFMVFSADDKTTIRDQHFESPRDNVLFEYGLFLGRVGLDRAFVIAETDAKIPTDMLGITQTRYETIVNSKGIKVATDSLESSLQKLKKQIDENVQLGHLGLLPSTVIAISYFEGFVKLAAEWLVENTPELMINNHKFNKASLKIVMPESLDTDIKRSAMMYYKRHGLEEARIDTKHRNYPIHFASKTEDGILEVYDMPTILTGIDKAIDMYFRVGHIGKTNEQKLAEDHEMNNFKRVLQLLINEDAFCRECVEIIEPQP

[3] = target: AaSTING (Aggregatibacter actinomycetemcomitans, UniProt A0A5D0EMF2)
AaSTING, sequence (A0A5D0EMF2 whole entry): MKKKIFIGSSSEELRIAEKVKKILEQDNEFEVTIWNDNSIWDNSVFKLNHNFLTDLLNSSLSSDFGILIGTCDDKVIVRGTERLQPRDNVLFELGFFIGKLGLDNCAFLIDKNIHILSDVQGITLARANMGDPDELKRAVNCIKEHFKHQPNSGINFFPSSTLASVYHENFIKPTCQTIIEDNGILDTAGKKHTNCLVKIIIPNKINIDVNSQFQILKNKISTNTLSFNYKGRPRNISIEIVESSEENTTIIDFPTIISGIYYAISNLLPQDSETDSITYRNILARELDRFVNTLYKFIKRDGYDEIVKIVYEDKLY

[4] = target: T3, NdSTING (Niabella drilacis, UniProt A0A1G6LGU2)
T3 sequence (A0A1G6LGU2 1-312): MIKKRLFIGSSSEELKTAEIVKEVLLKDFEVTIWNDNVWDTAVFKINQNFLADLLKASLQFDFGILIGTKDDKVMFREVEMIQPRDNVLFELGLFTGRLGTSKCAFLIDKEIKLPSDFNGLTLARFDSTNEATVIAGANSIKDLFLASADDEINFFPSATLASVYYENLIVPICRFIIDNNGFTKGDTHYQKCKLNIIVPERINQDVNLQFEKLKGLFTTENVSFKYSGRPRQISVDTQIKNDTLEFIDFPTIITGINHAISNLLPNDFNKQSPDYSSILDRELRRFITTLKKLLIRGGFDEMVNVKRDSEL

Compound: Nc1nc2c(ncn2[C@@H]2O[C@@H]3COP(=O)(O)O[C@H]4[C@@H](O)[C@H](n5cnc6c(=O)[nH]c(N)nc65)O[C@@H]4COP(=O)(O)O[C@H]3[C@H]2O)c(=O)[nH]1 [c-di-GMP]
- EMSA [1]: diverse panel of bacterial STING homologues demonstrates conservation of c-di-GMP binding
- EMSA [2]: Bacterial STING receptors specifically recognize c-di-GMP
- EMSA [3]: Bacterial STING receptors specifically recognize c-di-GMP
- EMSA [4]: diverse panel of bacterial STING homologues demonstrates conservation of c-di-GMP binding
